Data from ChEMBL document CHEMBL1136184, “Identification of a novel class of orally active pyrimido[5,4-3][1,2,4]triazine-5,7-diamine-based hypoglycemic agents with protein tyrosine phosphatase inhibitory activity” (Bioorg Med Chem Lett, 2003).
Several values for one entry are separate records, joined by “and”; a condition that tells them apart may be missing. Equal entries are not always repeated.

Legend:
[1] = test system: Mus musculus; assay: Percent change in blood glucose in male ob/ob mice dosed at 5 mg/kg orally evaluated 2 hr postdose on day 5; assay type: functional; details: route oral
[2] = target: Receptor-type tyrosine-protein phosphatase F (Homo sapiens, UniProt P10586); assay: In vitro inhibitory concentration required against Leukocyte antigen related receptor phosphatase (LAR) in the presence of 300 nM DTT
Sequence of Receptor-type tyrosine-protein phosphatase F (P10586 whole entry): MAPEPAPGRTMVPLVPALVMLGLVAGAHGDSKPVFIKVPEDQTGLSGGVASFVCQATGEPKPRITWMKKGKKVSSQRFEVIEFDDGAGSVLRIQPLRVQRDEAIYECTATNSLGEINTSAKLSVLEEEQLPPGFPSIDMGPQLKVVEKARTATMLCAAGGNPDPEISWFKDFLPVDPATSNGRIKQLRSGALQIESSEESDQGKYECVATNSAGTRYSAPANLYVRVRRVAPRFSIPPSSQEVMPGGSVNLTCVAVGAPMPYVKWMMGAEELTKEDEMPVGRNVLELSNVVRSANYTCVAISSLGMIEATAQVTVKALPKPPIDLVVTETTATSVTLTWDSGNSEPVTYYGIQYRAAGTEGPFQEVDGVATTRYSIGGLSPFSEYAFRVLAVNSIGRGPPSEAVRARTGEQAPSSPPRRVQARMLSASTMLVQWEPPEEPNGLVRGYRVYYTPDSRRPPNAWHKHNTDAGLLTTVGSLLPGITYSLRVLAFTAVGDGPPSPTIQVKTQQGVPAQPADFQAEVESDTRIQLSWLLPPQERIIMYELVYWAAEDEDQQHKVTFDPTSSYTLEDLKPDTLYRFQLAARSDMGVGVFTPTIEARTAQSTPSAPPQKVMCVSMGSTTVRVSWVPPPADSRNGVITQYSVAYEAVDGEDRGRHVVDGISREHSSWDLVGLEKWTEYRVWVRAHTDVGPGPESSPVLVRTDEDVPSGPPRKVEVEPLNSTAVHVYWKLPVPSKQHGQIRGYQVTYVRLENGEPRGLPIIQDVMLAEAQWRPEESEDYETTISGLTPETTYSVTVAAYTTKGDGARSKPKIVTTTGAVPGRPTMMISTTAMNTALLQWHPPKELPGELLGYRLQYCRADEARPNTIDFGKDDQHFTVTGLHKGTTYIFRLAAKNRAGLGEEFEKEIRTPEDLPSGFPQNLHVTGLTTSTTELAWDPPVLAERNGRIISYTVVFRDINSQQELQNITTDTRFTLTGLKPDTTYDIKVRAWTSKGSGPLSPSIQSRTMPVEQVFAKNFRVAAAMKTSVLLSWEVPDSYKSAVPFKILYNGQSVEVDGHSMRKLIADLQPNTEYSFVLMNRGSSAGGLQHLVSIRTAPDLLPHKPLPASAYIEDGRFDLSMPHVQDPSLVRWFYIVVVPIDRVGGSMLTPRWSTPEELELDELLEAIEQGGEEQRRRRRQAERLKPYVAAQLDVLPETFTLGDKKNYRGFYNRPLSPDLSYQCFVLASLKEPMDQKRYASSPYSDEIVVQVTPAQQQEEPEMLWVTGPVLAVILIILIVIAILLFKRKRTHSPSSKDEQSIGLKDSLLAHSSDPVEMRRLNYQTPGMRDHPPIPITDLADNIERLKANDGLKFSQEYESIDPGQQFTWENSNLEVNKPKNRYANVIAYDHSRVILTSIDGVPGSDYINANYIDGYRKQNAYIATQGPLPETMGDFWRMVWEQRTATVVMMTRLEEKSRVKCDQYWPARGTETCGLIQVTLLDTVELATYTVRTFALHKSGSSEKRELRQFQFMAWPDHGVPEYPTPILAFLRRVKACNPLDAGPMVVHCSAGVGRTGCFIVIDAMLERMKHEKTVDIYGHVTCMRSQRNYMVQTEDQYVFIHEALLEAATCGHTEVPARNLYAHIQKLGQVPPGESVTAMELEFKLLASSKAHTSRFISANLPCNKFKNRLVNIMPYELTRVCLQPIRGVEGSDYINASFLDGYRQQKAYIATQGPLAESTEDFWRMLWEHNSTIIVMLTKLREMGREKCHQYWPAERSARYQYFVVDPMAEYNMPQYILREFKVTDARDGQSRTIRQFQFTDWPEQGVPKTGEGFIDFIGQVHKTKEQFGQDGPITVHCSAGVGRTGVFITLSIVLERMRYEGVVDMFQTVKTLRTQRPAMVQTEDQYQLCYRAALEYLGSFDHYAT

[3] = target: T1, Tyrosine-protein phosphatase non-receptor type 1 (Homo sapiens, UniProt P18031); assay: Inhibition of Protein-tyrosine phosphatase 1B in 2 mM DTT
T1 sequence (P18031 whole entry): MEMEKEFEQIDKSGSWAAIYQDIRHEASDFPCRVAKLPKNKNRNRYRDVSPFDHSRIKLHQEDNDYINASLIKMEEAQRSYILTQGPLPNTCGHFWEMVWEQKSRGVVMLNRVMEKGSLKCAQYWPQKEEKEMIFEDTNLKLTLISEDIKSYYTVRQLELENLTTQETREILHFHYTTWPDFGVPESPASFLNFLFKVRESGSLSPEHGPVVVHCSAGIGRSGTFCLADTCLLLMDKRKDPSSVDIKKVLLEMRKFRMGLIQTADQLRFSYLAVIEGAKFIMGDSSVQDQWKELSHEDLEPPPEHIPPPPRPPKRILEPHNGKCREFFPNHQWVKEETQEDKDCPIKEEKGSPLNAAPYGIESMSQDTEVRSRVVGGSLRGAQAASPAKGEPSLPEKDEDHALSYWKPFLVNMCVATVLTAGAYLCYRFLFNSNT

[4] = target: Receptor-type tyrosine-protein phosphatase alpha (Homo sapiens, UniProt P18433); assay: In vitro inhibitory concentration required against Protein-tyrosine phosphatase alpha in the presence of 300 nM DTT
Sequence of Receptor-type tyrosine-protein phosphatase alpha (P18433 whole entry): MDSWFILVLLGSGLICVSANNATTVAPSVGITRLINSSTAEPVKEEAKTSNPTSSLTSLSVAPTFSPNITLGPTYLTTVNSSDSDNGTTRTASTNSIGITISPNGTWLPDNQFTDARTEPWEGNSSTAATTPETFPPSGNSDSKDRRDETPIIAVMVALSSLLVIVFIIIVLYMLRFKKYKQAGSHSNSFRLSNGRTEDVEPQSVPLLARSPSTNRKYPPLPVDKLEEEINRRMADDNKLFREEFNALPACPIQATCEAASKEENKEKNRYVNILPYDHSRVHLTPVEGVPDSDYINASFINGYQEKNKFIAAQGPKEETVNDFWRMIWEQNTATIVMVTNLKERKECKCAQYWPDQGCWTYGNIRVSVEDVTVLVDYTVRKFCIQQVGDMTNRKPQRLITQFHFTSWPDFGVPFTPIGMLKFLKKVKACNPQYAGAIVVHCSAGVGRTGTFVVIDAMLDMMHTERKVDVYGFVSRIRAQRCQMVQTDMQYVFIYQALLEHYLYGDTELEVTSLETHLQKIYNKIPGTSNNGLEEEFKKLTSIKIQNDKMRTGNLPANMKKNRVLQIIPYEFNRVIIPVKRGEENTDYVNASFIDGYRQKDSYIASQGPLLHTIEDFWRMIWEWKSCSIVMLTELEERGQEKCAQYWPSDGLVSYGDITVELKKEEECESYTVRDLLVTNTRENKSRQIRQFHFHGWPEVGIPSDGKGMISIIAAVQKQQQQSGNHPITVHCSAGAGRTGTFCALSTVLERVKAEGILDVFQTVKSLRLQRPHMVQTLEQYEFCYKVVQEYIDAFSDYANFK

[5] = target: T1, Tyrosine-protein phosphatase non-receptor type 1; assay: Inhibition of Protein-tyrosine phosphatase 1B in 300 nM DTT
[6] = target: T2, Tyrosine-protein phosphatase non-receptor type 11 (Homo sapiens, UniProt Q06124); assay: In vitro inhibitory concentration required against Tyrosine phosphatase SHP-2 in the presence of 300 nM DTT
T2 sequence (Q06124 whole entry): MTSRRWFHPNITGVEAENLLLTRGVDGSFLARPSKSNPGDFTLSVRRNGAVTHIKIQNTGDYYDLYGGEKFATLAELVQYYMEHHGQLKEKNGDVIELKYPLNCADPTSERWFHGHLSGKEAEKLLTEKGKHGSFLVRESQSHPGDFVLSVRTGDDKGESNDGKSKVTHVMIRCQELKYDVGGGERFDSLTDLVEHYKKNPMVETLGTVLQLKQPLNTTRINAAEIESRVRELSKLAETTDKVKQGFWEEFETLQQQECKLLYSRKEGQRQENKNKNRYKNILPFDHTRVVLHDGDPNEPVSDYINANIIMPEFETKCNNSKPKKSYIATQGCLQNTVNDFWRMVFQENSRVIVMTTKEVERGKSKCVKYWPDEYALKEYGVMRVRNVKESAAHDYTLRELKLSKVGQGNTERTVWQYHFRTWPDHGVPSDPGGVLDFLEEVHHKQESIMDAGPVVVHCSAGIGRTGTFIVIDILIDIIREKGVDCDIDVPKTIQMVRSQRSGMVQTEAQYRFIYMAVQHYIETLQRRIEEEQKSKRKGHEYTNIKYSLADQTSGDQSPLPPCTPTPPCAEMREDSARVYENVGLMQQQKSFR

[7] = Steady state volume of distribution was determined in mice; assay type: ADME, organism-based; details: mouse, in vivo; read-out: Vss
[8] = Oral availability at 50 mg/kg po in male mice; assay type: ADME, organism-based; set-up: dose 50 mg/kg, route oral; details: mouse, in vivo
[9] = Plasma clearance in mice; assay type: ADME, organism-based; details: mouse
[10] = Cmax value was determined; assay type: ADME, organism-based; details: mouse, in vivo
[11] = Half life in mice; assay type: ADME, organism-based; details: mouse, in vivo

| Structure (SMILES) | IC50 [3] [µM] | IC50 [5] | other results |
| --- | --- | --- | --- |
| Nc1nc(N)c2nc(CN3CCN(Cc4ccccc4)CC3)nnc2n1 | 98 | 6.2 µM and 8 µM | Change in blood glucose [1]: -23%; IC50 [2]: 12 µM; IC50 [4]: 24 µM; IC50 [6]: 9 µM |
| Nc1nc(N)c2nc(CN3CCN(c4ccccc4)CC3)nnc2n1 | > 100 | > 100 µM | – |
| Nc1nc(N)c2nc(CN3CCNCC3)nnc2n1 | 91 | 29 µM | – |
| Nc1nc(N)c2nc(CN3CCN(Cc4ccc5ccccc5c4)CC3)nnc2n1 | 33 | 3.5 µM | – |
| Nc1nc(N)c2nc(CN3CCN(Cc4cccc5ccccc45)CC3)nnc2n1 | 40 | 4.5 µM | – |
| Nc1nc(N)c2nc(CN3CCN(Cc4ccc(-c5ccccc5)cc4)CC3)nnc2n1 | 18 | 2.9 µM and 8 µM | Vd [7]: 3.1 L/kg; bioavailability [8]: 97%; Change in blood glucose [1]: -19%; clearance [9]: 104 mL/min/kg; IC50 [2]: 16 µM; IC50 [4]: 15 µM; Cmax [10]: 4 µM; half-life [11]: 60 min; IC50 [6]: 5 µM |

More lines, main results first:

| IC50 [3] [µM] | IC50 [5] | Structure (SMILES) | other results |
| --- | --- | --- | --- |
| 87 | 21 µM | CN1CCN(Cc2nnc3nc(N)nc(N)c3n2)CC1 | – |
| > 100 | 24 µM | Nc1nc(N)c2nc(CN3CCOCC3)nnc2n1 | – |
| > 100 | 29 µM and 12 µM | CCN(CC)Cc1nnc2nc(N)nc(N)c2n1 | IC50 [2]: 28 µM; IC50 [4]: 28 µM; IC50 [6]: 14 µM |
| > 100 | 24 µM | Nc1nc(N)c2nc(CN3CCCCC3)nnc2n1 | – |
| > 100 | 97 µM | Nc1nc(N)c2nc(CN(CCO)CCO)nnc2n1 | – |
